Test results taken from patent publication US9580431B2, “Inhibitors of human immunodeficiency virus replication” (priority 2013, dated 2017).
pEC50: −log10 of the molar value.

system: recombinant NL-Rluc virus; assay: microbe, parasite or virus in culture; assay type: cell-based, HIV; settings: Human immunodeficiency virus 1, MT2, 120 h, NL-RLuc virus infecting MT-2 cells, 5 days of incubation, luciferase readout; at least 2 experiments; serum condition not given; read-out: EC50

`Cc1nc2cc(-c3nc4cc(Cl)ccc4[nH]3)nn2c(-c2cc(F)c3c(c2C)CCCO3)c1[C@H](OC(C)(C)C)C(=O)O` [Example 1, (2S)-2-(tert-Butoxy)-2-(2-(5-chloro-1H-benzo[d]imidazol-2-yl)-7-(8-fluoro-5-methylchroman-6-yl)-5-methylpyrazolo[1,5-a]pyrimidin-6-yl)acetic acid] and `Cc1nc2cc(-c3nc4cc(Cl)ccc4n3C)nn2c(-c2cc(F)c3c(c2C)CCCO3)c1[C@H](OC(C)(C)C)C(=O)O` [Example 2, (2S)-2-(tert-Butoxy)-2-(2-(5-chloro-1-methyl-1H-benzo[d]imidazol-2-yl)-7-(8-fluoro-5-methylchroman-6-yl)-5-methylpyrazolo[1,5-a]pyrimidin-6-yl)acetic acid] are within 0.2 log units of each other in pEC50: 7.33 for the first, 7.30 for the second.

First: Cc1nc2cc(-c3nc4ccc(Cl)cc4n3C)nn2c(-c2cc(F)c3c(c2C)CCCO3)c1[C@H](OC(C)(C)C)C(=O)O [Example 3, (2S)-2-(tert-Butoxy)-2-(2-(6-chloro-1-methyl-1H-benzo[d]imidazol-2-yl)-7-(8-fluoro-5-methylchroman-6-yl)-5-methylpyrazolo[1,5-a]pyrimidin-6-yl)acetic acid]
Second: Cc1nc2cc(-c3ncc(-c4cccc(F)c4)s3)nn2c(-c2cc(F)c3c(c2C)CCCO3)c1[C@H](OC(C)(C)C)C(=O)O [Example 9, (2S)-2-(tert-Butoxy)-2-(7-(8-fluoro-5-methylchroman-6-yl)-2-(5-(3-fluorophenyl)thiazol-2-yl)-5-methylpyrazolo[1,5-a]pyrimidin-6-yl)acetic acid]
The pEC50 of the first is 0.55 log units lower: 7.00 for the first, 7.55 for the second.

Going from `Cc1nc2cc(-c3nc4cc(-c5ccccc5)ccc4[nH]3)nn2c(-c2cc(F)c3c(c2C)CCCO3)c1[C@H](OC(C)(C)C)C(=O)O` [Example 4, (2S)-2-(tert-Butoxy)-2-(7-(8-fluoro-5-methylchroman-6-yl)-5-methyl-2-(5-phenyl-1H-benzo[d]imidazol-2-yl)pyrazolo[1,5-a]pyrimidin-6-yl)acetic acid] to `Cc1nc2cc(-c3ncc(-c4ccc(F)cc4)s3)nn2c(-c2cc(F)c3c(c2C)CCCO3)c1[C@H](OC(C)(C)C)C(=O)O` [Example 8, (2S)-2-(tert-Butoxy)-2-(7-(8-fluoro-5-methylchroman-6-yl)-2-(5-(4-fluorophenyl)thiazol-2-yl)-5-methylpyrazolo[1,5-a]pyrimidin-6-yl)acetic acid], the pEC50 rises from 6.88 to 7.96 (1.08 log units). The second is the more potent here.

First: Cc1nc2cc(-c3ncc(Cc4ccc(F)cc4)s3)nn2c(-c2cc(F)c3c(c2C)CCCO3)c1[C@H](OC(C)(C)C)C(=O)O [Example 5, (2S)-2-(tert-Butoxy)-2-(7-(8-fluoro-5-methylchroman-6-yl)-2-(5-(4-fluorobenzyl)thiazol-2-yl)-5-methylpyrazolo[1,5-a]pyrimidin-6-yl)acetic acid]
Second: Cc1nc2cc(-c3ncc(Cc4ccc(F)cc4)o3)nn2c(-c2cc(F)c3c(c2C)CCCO3)c1[C@H](OC(C)(C)C)C(=O)O [Example 6, (2S)-2-(tert-Butoxy)-2-(7-(8-fluoro-5-methylchroman-6-yl)-2-(5-(4-fluorobenzyl)oxazol-2-yl)-5-methylpyrazolo[1,5-a]pyrimidin-6-yl)acetic acid]
The pEC50 of the first is 0.30 log units higher: 8.52 for the first, 8.22 for the second. The first is the more potent here.

First: Cc1nc2cc(-c3nc(Cc4ccc(F)cc4)no3)nn2c(-c2cc(F)c3c(c2C)CCCO3)c1[C@H](OC(C)(C)C)C(=O)O [Example 7, (2S)-2-(tert-Butoxy)-2-(7-(8-fluoro-5-methylchroman-6-yl)-2-(3-(4-fluorobenzyl)-1,2,4-oxadiazol-5-yl)-5-methylpyrazolo[1,5-a]pyrimidin-6-yl)acetic acid]
Second: Cc1nc2cc(-c3ncc(Cc4ccc(F)cc4)o3)nn2c(C2=CCC(C)(C)CC2)c1[C@H](OC(C)(C)C)C(=O)O [Example 12, (S)-2-(tert-Butoxy)-2-(7-(4,4-dimethylcyclohex-1-en-1-yl)-2-(5-(4-fluorobenzyl)oxazol-2-yl)-5-methylpyrazolo[1,5-a]pyrimidin-6-yl)acetic acid]
The pEC50 of the first is 0.34 log units lower: 7.55 for the first, 7.89 for the second. The second is the more potent here.

Going from `Cc1nc2cc(-c3ncc(Cc4ccc(F)cc4)s3)nn2c(C2=CCC(C)(C)CC2)c1[C@H](OC(C)(C)C)C(=O)O` [Example 10, (S)-2-(tert-Butoxy)-2-(7-(4,4-dimethylcyclohex-1-en-1-yl)-2-(5-(4-fluorobenzyl)thiazol-2-yl)-5-methylpyrazolo[1,5-a]pyrimidin-6-yl)acetic acid] to `Cc1nc2cc(-c3ncc(Cc4ccc(F)cc4)s3)nn2c(C2CCC(C)(C)CC2)c1[C@H](OC(C)(C)C)C(=O)O` [Example 11, (S)-2-(tert-Butoxy)-2-(7-(4,4-dimethylcyclohexyl)-2-(5-(4-fluorobenzyl)thiazol-2-yl)-5-methylpyrazolo[1,5-a]pyrimidin-6-yl)acetic acid], the pEC50 falls from 7.72 to 7.09 (0.63 log units).

Going from `Cc1nc2cc(-c3ncc(Cc4ccc(F)cc4)s3)nn2c(N2CCC(C)(C)CC2)c1[C@H](OC(C)(C)C)C(=O)O` [Example 13, (S)-2-(tert-Butoxy)-2-(7-(4,4-dimethylpiperidin-1-yl)-2-(5-(4-fluorobenzyl)thiazol-2-yl)-5-methylpyrazolo[1,5-a]pyrimidin-6-yl)acetic acid] to `Cc1nc2cc(-c3ncc(CCc4ccc(F)cc4)s3)nn2c(N2CCC(C)(C)CC2)c1[C@H](OC(C)(C)C)C(=O)O` [Example 16, (S)-2-(tert-Butoxy)-2-(7-(4,4-dimethylpiperidin-1-yl)-2-(5-(4-fluorophenethyl)thiazol-2-yl)-5-methylpyrazolo[1,5-a]pyrimidin-6-yl)acetic acid], the pEC50 falls from 7.85 to 7.42 (0.43 log units).

First: Cc1nc2cc(-c3ncc(C(C)c4ccc(F)cc4)s3)nn2c(N2CCC(C)(C)CC2)c1[C@H](OC(C)(C)C)C(=O)O (stereo partly drawn) [Example 14, (2S)-2-(tert-Butoxy)-2-(7-(4,4-dimethylpiperidin-1-yl)-2-(5-(1-(4-fluorophenyl)ethyl)thiazol-2-yl)-5-methylpyrazolo[1,5-a]pyrimidin-6-yl)acetic acid]
Second: CCC1(C)CCN(c2c([C@H](OC(C)(C)C)C(=O)O)c(C)nc3cc(-c4ncc(Cc5ccc(F)cc5)s4)nn23)CC1 [Example 17, (S)-2-(tert-Butoxy)-2-(7-(4-ethyl-4-methylpiperidin-1-yl)-2-(5-(4-fluorobenzyl)thiazol-2-yl)-5-methylpyrazolo[1,5-a]pyrimidin-6-yl)acetic acid]
The pEC50 of the first is 0.32 log units lower: 7.57 for the first, 7.89 for the second.

First: Cc1cc(Cc2cnc(-c3cc4nc(C)c([C@H](OC(C)(C)C)C(=O)O)c(N5CCC(C)(C)CC5)n4n3)s2)ccc1F [Example 15, (S)-2-(tert-Butoxy)-2-(7-(4,4-dimethylpiperidin-1-yl)-2-(5-(4-fluoro-3-methylbenzyl)thiazol-2-yl)-5-methylpyrazolo[1,5-a]pyrimidin-6-yl)acetic acid]
Second: Cc1nc2cc(-c3ncc(Cc4ccc(F)cc4)s3)nn2c(N2CCC(C)(O)CC2)c1[C@H](OC(C)(C)C)C(=O)O [Example 18, (S)-2-(tert-Butoxy)-2-(2-(5-(4-fluorobenzyl)thiazol-2-yl)-7-(4-hydroxy-4-methylpiperidin-1-yl)-5-methylpyrazolo[1,5-a]pyrimidin-6-yl)acetic acid]
The pEC50 of the first is 0.88 log units higher: 7.72 for the first, 6.84 for the second. The first is the more potent here.

Compared with `CC1=CCN(c2c([C@H](OC(C)(C)C)C(=O)O)c(C)nc3cc(-c4ncc(Cc5ccc(F)cc5)s4)nn23)CC1` [Example 19, (S)-2-(tert-Butoxy)-2-(2-(5-(4-fluorobenzyl)thiazol-2-yl)-5-methyl-7-(4-methyl-5,6-dihydropyridin-1(2H)-yl)pyrazolo[1,5-a]pyrimidin-6-yl)acetic acid], `Cc1nc2cc(-c3ncc(Cc4ccc(F)cc4)s3)nn2c(N2CC=C(c3ccccc3)CC2)c1[C@H](OC(C)(C)C)C(=O)O` [Example 20, (S)-2-(tert-Butoxy)-2-(2-(5-(4-fluorobenzyl)thiazol-2-yl)-5-methyl-7-(4-phenyl-5,6-dihydropyridin-1(2H)-yl)pyrazolo[1,5-a]pyrimidin-6-yl)acetic acid] is 0.92 log units lower in pEC50: 6.98 for the first, 6.06 for the second. The first is the more potent here.

Compared with `Cc1nc2cc(-c3ncc(Cc4ccc(F)cc4)s3)nn2c(N2CCC(C)(CO)CC2)c1[C@H](OC(C)(C)C)C(=O)O` [Example 21, (S)-2-(tert-Butoxy)-2-(2-(5-(4-fluorobenzyl)thiazol-2-yl)-7-(4-(hydroxymethyl)-4-methylpiperidin-1-yl)-5-methylpyrazolo[1,5-a]pyrimidin-6-yl)acetic acid], `C=CC1(C)CCN(c2c([C@H](OC(C)(C)C)C(=O)O)c(C)nc3cc(-c4ncc(Cc5ccc(F)cc5)s4)nn23)CC1` [Example 23, (S)-2-(tert-Butoxy)-2-(2-(5-(4-fluorobenzyl)thiazol-2-yl)-5-methyl-7-(4-methyl-4-vinylpiperidin-1-yl)pyrazolo[1,5-a]pyrimidin-6-yl)acetic acid] is 0.80 log units higher in pEC50: 7.12 for the first, 7.92 for the second. The second is the more potent here.

Compared with `COC1(C)CCN(c2c([C@H](OC(C)(C)C)C(=O)O)c(C)nc3cc(-c4ncc(Cc5ccc(F)cc5)s4)nn23)CC1` [Example 22, (S)-2-(tert-Butoxy)-2-(2-(5-(4-fluorobenzyl)thiazol-2-yl)-7-(4-methoxy-4-methylpiperidin-1-yl)-5-methylpyrazolo[1,5-a]pyrimidin-6-yl)acetic acid], `Cc1nc2cc(-c3ncc(Cc4ccc(F)cc4)s3)nn2c(N2CCC(C)(C3CC3)CC2)c1[C@H](OC(C)(C)C)C(=O)O` [Example 24, (S)-2-(tert-Butoxy)-2-(7-(4-cyclopropyl-4-methylpiperidin-1-yl)-2-(5-(4-fluorobenzyl)thiazol-2-yl)-5-methylpyrazolo[1,5-a]pyrimidin-6-yl)acetic acid] is 0.33 log units lower in pEC50: 7.92 for the first, 7.59 for the second.

Going from `Cc1nc2cc(-c3ccc(Cc4ccc(F)cc4)s3)nn2c(N2CCC(C)(C)CC2)c1[C@H](OC(C)(C)C)C(=O)O` [Example 25, (S)-2-(tert-Butoxy)-2-(7-(4,4-dimethylpiperidin-1-yl)-2-(5-(4-fluorobenzyl)thiophen-2-yl)-5-methylpyrazolo[1,5-a]pyrimidin-6-yl)acetic acid] to `Cc1nc2cc(N3CCN(Cc4ccccc4)C3=O)nn2c(N2CCC(C)(C)CC2)c1[C@H](OC(C)(C)C)C(=O)O` [Example 26, (S)-2-(2-(3-Benzyl-2-oxoimidazolidin-1-yl)-7-(4,4-dimethylpiperidin-1-yl)-5-methylpyrazolo[1,5-a]pyrimidin-6-yl)-2-(tert-butoxy)acetic acid], the pEC50 falls from 7.64 to 6.84 (0.80 log units).
